Measured values: article PMC9804781, “Identification of a Novel Pseudo‐Natural Product Type IV IDO1 Inhibitor Chemotype” (Angewandte Chemie (International Ed. in English), 2022)

Tested on: Kyn levels in BxPC-3 cells
Assay: Manual Kyn assay in BxPC-3 cells (p-DMAB detection), incl. hemin competition
Format: cell-based
Conditions: IFN-γ, L-Trp
Description: Mammalian cell lines were maintained at 37°C and 5% CO2 in a humidified atmosphere and sub-cultivated twice a week. All cell lines were tested regularly for mycoplasma contamination and were always free of mycoplasma. BxPC-3 cells (DSMZ#760) were grown in RPMI-1640 medium supplemented with 10% FBS, 2 mM L-glutamine, 1 mM sodium pyruvate, 4.5 g/L glucose, 10 mM HEPES and 1.5 g/L NaHCO3. HeLa cells (DSMZ#57) were cultivated in DMEM supplemented with 10% FBS, 4.5 g/L glucose, 4 mM L-glutamine 1 mM sodium pyruvate, 1% non-essential amino acids, 3.7 g/L NaHCO3. SKOV-3 cells (ATCC#HTB-77) were maintained in modified McCoy’s 5A medium supplemented with 10% FBS, 1.5 mM L-glutamine and 2.2 g/L NaHCO3. […]
For manual testing, BxPC-3, HeLa or SKOV-3 cells (20,000 cells/well, 5,000 cells/well or 6,250 cells/well, respectively) were seeded in 96-well plates (BxPC-3 and HeLa) or 384-well plates (SKOV-3) in medium without phenol red. […]
temperature and centrifuged for 10 min at 1800 x g. Afterwards, an equal volume of freshly prepared 2% (w/v) p-DMAB in glacial acetic acid (Ehrlich reagent) was added prior to measuring the absorbance at 492 nm and 650 nm on the Spark® Multimode Microplate Reader (Tecan, AT).
To determine the Kyn levels, the absorbance of the Kyn-p-DMAB adduct A492 was subtracted by the background absorbance A650 and normalized to the DMSO control. […]

For `CCOC(=O)C1=CC[C@](C(=O)OC)(c2cc3ccccc3n2C)N(S(=O)(=O)c2ccc(C)cc2)[C@@H]1C(=O)OC(C)(C)C` [Compound 3d], the “effect of free hemin on potency in the Kyn assay” value (BxPC-3, hemin, 600 nM apoxidole-1, 48 h) was “reduced the potency” and the “activity in Kyn assay in BxPC-3 cells” value (BxPC-3 cells, 48 h, p-DMAB) was “completely inactive”.
